Assay results reported in patent publication USRE47689E1, “Compounds for treating spinal muscular atrophy” (PTC Therapeutics, Inc., priority 2011, dated 2019).

Assays:
Smn protein [1] = assay: Smn protein assay in cultured cells (SMN HTRF); assay type: cell-based, human; settings: 48 hours; for Smn protein expression: SMA Type 1 patient fibroblast cells, SMN HTRF assay; for maximum fold (Fold) increase of Smn protein: SMA patient fibroblast cells, 7-point concentration data, fold increase relative to vehicle control (SMN HTRF)
Method in brief: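 Smn in SMA fibroblast lysates, measured by anti-SMN HTRF after 48 h compound exposure; EC1.5x from fold change over vehicle.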

Smn protein [2] = assay: Smn protein assay in human motor neurons; assay type: cell-based; settings: human motor neurons derived from SMA iPS cells; increasing concentrations; 72 hours; confocal fluorescence microscopy
Method: Smn immunofluorescent confocal microscopy is used to quantify the level of Smn protein in human motor neurons treated with test compounds.
Protocol. Human motor neurons derived from SMA iPS cells (Ebert et al., Nature, 2009, […]; and, Rubin et al., BMC Biology, 2011, 9:42) are treated with test compound at various concentrations for 72 hours. The level of Smn protein in the cell nucleus is quantified using Smn immunostaining and confocal fluorescence microscopy essentially as described in Makhortova et al., Nature Chemical Biology, 2011, 7:544. The level of Smn protein in compound-treated samples is normalized to that in vehicle-treated samples and plotted as a function of the compound concentration.

Smn protein [3] = assay: Smn protein assay in tissues of adult C/C-allele SMA mice; assay type: in vivo, mouse; settings: brain, spinal cord, muscle, 10 mg/kg orally twice a day for 10 days
Method: This Smn protein assay compares tissues from test compound treated mice with those from DMSO vehicle treated mice to determine the increase in levels of Smn protein produced from the human SMN2 gene.
Protocol. The tissue samples in Safe-Lock tubes are weighed and the volume of RIPA buffer containing the protease inhibitor cocktail is added based on the weight to volume ratios for each type of tissue: Brain (50 mg/mL), Muscle (50 mg/mL) and Spinal Cord (25 mg/mL).
Tissues are homogenized using the TissueLyzer by bead milling. 5 mm stainless steel beads are added to the sample and shaken vigorously for 5 minutes at 30 Hz in the TissueLyzer. The samples are then centrifuged for 20 minutes at 14,000×g in a microcentrifuge and the homogenates transferred to the PCR plate. The homogenates are diluted in RIPA buffer to approximately 1 mg/mL for HTRF and approximately 0.5 mg/mL for total protein measurement using the BCA protein assay. For the SMN HTRF assay, 35 μL of the tissue homogenate is transferred to a 384-well plate containing 5 μL of the antibody solution (1:100 dilution of each of the anti-SMNd2 and anti-SMN Kryptate in reconstitution buffer). To provide a control signal, three (3) wells in the plate contain only RIPA Lysis Buffer and, thus, serve as Blank control wells. The plate is centrifuged for 1 minute to bring the solution to the bottom of the wells and then incubated overnight at room temperature. Fluorescence for each well of the plate at 665 nm and 620 nm is measured on an EnVision multilabel plate reader (Perkin-Elmer). The total protein in the tissue homogenate is measured using the BCA assay according to the manufacturer's protocol.
The normalized fluorescence signal is calculated for each sample, Blank and vehicle control well by dividing the signal at 665 nm by the signal at 620 nm. Normalizing the signal accounts for possible fluorescence quenching due to the matrix effect of the tissue homogenate. The ΔF value (a measurement of Smn protein abundance) for each tissue sample well is calculated by subtracting the normalized average fluorescence for the Blank control wells from the normalized fluorescence for each tissue sample well and then dividing this difference by the normalized average fluorescence for the Blank control wells. The ΔF value for each tissue sample well is divided by the total protein quantity (determined using the BCA assay) for that tissue sample. The change in Smn protein abundance for each tissue sample relative to the vehicle control is calculated as the percent difference in the ΔF value of the tissue sample in the presence of the test compound and the averaged ΔF value of the vehicle control signal divided by the averaged ΔF value of the vehicle control signal. […]

SMILES | Smn protein expression (Smn protein [1]) | maximum fold (Fold) increase of Smn protein (Smn protein [1]) | Smn protein in the nucleus (Smn protein [2]) | Smn protein levels in target tissues compared with heterozygous mice (Smn protein [3]) | total protein normalized Smn level relative to the vehicle group (Smn protein [3]) | EC1.5x (concentration giving 1.5-fold Smn protein increase) (Smn protein [1]; SMA Type 1 patient fibroblast cells (GM03813), 7-point concentration curve, SMN HTRF, concentration producing 1.5 times Smn protein vs DMSO vehicle control, read-out: EC1.5x for Smn protein expression) [nM]
CC(C)NCCc1ccc2cc(-c3nc4c(Cl)cccc4s3)c(=O)oc2c1 [Cpd 35, 3-(4-chloro-1,3-benzothiazol-2-yl)-7-[2-(propan-2-ylamino)ethyl]-2H-chromen-2-one] | dose dependent increase in Smn protein expression | * (maximum fold increase of ≤1.2) | progressively more Smn protein in the nucleus | above those observed in the corresponding tissues of the heterozygous mice | increased | 
CCN1CCN(c2ccc3cc(-c4cn5cc(C)nc(C)c5n4)c(=O)oc3c2)C[C@@H]1C [Cpd 626, 3-(6,8-dimethylimidazo[1,2-a]pyrazin-2-yl)-7-[(3S)-4-ethyl-3-methylpiperazin-1-yl]-2H-chromen-2-one] | dose dependent increase in Smn protein expression | **** (fold increase between >1.5 and ≤1.65) | progressively more Smn protein in the nucleus | above those observed in the corresponding tissues of the heterozygous mice | increased | < 300
